# Test results published in patent US11980607B2, “Methods of treating malignant lymphoproliferative disorders” (Actuate Therapeutics Inc., priority 2018, dated 2024).
# Tests used:
# [1] = test system: primary lymphoma cells freshly isolated from patients; experiment: Proliferation of primary lymphoma patient cells; type: cell-based, human; conditions: 5 patient samples (MCL, high grade B-cell lymphoma, follicular 3B, DLBCL, angioimmunoblastic TCL)
# From the text: (A) Immunoblot of GSK-3α and GSK-3β proteins showing overexpression in patient samples vs normal B-cell control. P1: MCL; P2: High grade B-cell lymphoma; P3: follicular large B-cell lymphoma 3B; P4: DLBCL; P5: angioimmunoblastic T-cell lymphoma. (B) 9-ING-41 inhibited proliferation in all 5 patient samples. (C) Immunohistochemistry staining of GSK-3β on paraffin tissue sections of patients with various lymphoma. Representative images show the spectrum of GSK-3β (in brown) overexpression in different lymphoma samples. […] Images were collected under 40× magnification.
# Lymphoma tissue samples were obtained from patients after written informed consent. This Lymphoma SPORE biospecimens protocol was approved by the Mayo Clinic Institutional Review Board in accordance with the Declaration of Helsinki. All primary patient samples were biopsy tissues from spleen or lymph nodes. Fresh tissue samples were gently dissociated into cell suspension and subjected to Ficoll-Paque density gradient centrifugation. Primary lymphoma cells were then used directly for proliferation assay, or stored in −80° C. for Western analysis later after lymphoma diagnosis confirmation.
# Cells were seeded at 1×10^4 cells/well in 96 well plates, and incubated with 9-ING-41 at indicated concentrations for 48 hours followed by pulsing with tritium labeled thymidine for overnight before being analyzed for thymidine uptake. […]
# Jeko cells = experiment: Mitotic stage morphology (Wright stain, differential counting); type: cell-based, human; conditions: 1.0 uM, 24 hours
# Protocol: (A) Cartoon depiction of the sequential steps (M1-M5) during mitosis (purchased from Shutterstock and modified). (B). Representative Wright stain images of Jeko cells untreated and treated with 1.0 uM 9-ING-41 for 24 hours. […] (C). Bar chart showing the number of mitotic M1-M5 cells identified when 100 untreated or 9-ING-41 treated Jeko cells were counted.
# Although cells arrested in G2/M appear as a single DNA content (4N) peak on a flow cytometry histogram (FIG. 6A), there are actually at least 5 sequential steps (M1-M5) in G2/M critical to successful cell division. These include prophase (M1, chromosome condensation, mitotic spindle formation starts), prometaphase (M2, nuclear membrane breakdown, centrosome polarization), metaphase (M3, chromosome pairs align middle plane), anaphase (M4, daughter chromatids separate), telophase (M5, reformation of daughter nuclei), and the final cytokinesis (separation of two daughter cells). Each of these discrete steps has a unique identifiable nuclear morphology on Wright's stained cells (depicted in FIG. 7A). The morphology of untreated and 9-ING-41 treated Jeko cells to determine at what stage they become arrested was examined. […] These observations support the conclusion that GSK3 activity is necessary for the progression of mitotic prophase.
smiles,measurement,setting,value
"Cn1cc(C2=C(c3coc4ccc(F)cc34)C(=O)NC2=O)c2cc3c(cc21)OCO3 [9-ING-41, 3-(5-Fluorobenzofuran-3-yl)-4-(5-methyl-5H-[1,3]dioxolo[4,5-f]indol-7-yl)pyrrole-2,5-dione]",Antiproliferative effect in primary patient cells,[1],similarly responsive to the antiproliferative effects
same,Mitotic stages seen among 100 mitotic cells,Jeko cells,only prophase (M1) cells
